Earlier results, collected in patent publication US20100204159A1, “ORGANIC COMPOUNDS AND THEIR USES” (priority 2006, published 2010).

System: HCV
Conditions: ribavirin alone; Davis, Gastroenterology 118:S104-S114, 2000

What does the source list for NC(=O)c1ncn([C@@H]2O[C@H](CO)[C@@H](O)[C@H]2O)n1 [Ribavirin, 1-β-D-ribofuranosyl-1-1,2,4-triazole-3-caroxamide]?
effect on serum levels of HCV-RNA: does not lower serum levels of HCV-RNA; patients in whom serum amino transferase levels are reduced to normal: 40 % of patients
